In assay [1] the test system is T7 (DNA, G4) TGGGTTGGGTTGGGTTGGGT
Nature of the assay: CD melting at 262 nm. The conditions noted are these: 5 mM K+, 95 mM Li+; 10 mM lithium cacodylate pH 7.2; ~5 μM DNA, 2 eq. NMM.

Assay [2] has as its system T1 (DNA, G4) GGGTTGGGTTGGGTTGGG
Put plainly: CD melting at 262 nm. The conditions noted are these: 5 mM K+, 95 mM Li+; 10 mM lithium cacodylate pH 7.2; ~5 μM DNA, 2 eq. NMM.

In assay [3] the test system is T7 (DNA, G4) TGGGTTGGGTTGGGTTGGGT
Put plainly: X-ray crystallography, 2.34 Å. The conditions noted are these: 20 mM K+; annealed in 10 mM lithium cacodylate pH 7.2; 5'-5' GQ dimer, NMM on 3' G-quartet.

Assay [4] relates to T8 (DNA, G4) CGGGTTGGGTTGGGTTGGGG
Put plainly: CD melting at 262 nm. The conditions noted are these: 5 mM K+, 95 mM Li+; 10 mM lithium cacodylate pH 7.2; ~5 μM DNA, 2 eq. NMM.

The subject of assay [5] is T1 (DNA, G4) GGGTTGGGTTGGGTTGGG
Nature of the assay: X-ray crystallography, 2.39 Å. The conditions noted are these: 20 mM K+; annealed in 10 mM lithium cacodylate pH 7.2; 5'-5' GQ dimer, NMM on 3' G-quartet.

Assay [6] deals with T7 (DNA, G4) TGGGTTGGGTTGGGTTGGGT
Nature of the assay: UV-vis titration, SVD, direct fit. The conditions noted are these: 5 mM K+, 95 mM Li+; 10 mM lithium cacodylate pH 7.2; 4.3 μM NMM titrated with DNA.

Molecules are shown by their SMILES.

Experimental findings from paper PMC7673559 (2020) are described below.

A word on the ΔTm: it is the change in melting temperature against a reference sample. Turning to `CCc1c(C)c2cc3nc(cc4nc(cc5c(CC)c(C)c(cc1[nH]2)n5C)C(C)=C4CCC(=O)O)C(CCC(=O)O)=C3C`, the ΔTm in assay [1] is 19.9 ± 0.4 °C; in assay [2], 20. ± 1 °C; in assay [4] it was 17.0 ± 0.5 °C. Besides, the binding entry in assay [3] and in assay [5] was “yes” throughout. In addition, in assay [6], the Ka came out at 18 ± 7 µM⁻¹.
